Assays:
[1] = test system: alcohol-preferring (P) rats; assay: Ethanol consumption, 24-hour-access two-bottle choice (10% ethanol vs. water), P rats; type: in vivo, rat; settings: for decrease from baseline in alcohol consumption: Example 1, topiramate 10 mg/kg IP, ondansetron 0.001 mg/kg IP, test session, mean±SE of 17 rats; for decrease from baseline in alcohol consumption / preference for ethanol over water, average on test sessions / preference for ethanol over water, baseline change: P rats; for ethanol consumption vs baseline: Example 4, P rats N=18, topiramate 10 mg/kg, ondansetron 0.001 mg/kg, FIG. 4A; for preference for ethanol over water, average on test sessions: baseline average preference 0.6±0.2; for preference for ethanol over water, baseline change: test sessions
Experimental: Combined effect of topiramate (10 mg/kg, IP) and ondansetron (0.001 mg/kg, IP) on alcohol consumption in alcohol-preferring (P) rats. […] Data were plotted across 7 consecutive sessions, which include a 3-day baseline period, the test session in which the ondansetron and/or topiramate injection was administered, and the 3 sessions that followed the test session. […]
(§1) The effects of ondansetron and topiramate were examined for their ability to modulate two important aspects of alcohol abuse: total consumption and relapse. Total consumption was examined under a 24-hour-access two-bottle choice procedure wherein rats had unlimited access to alcohol solutions (10%) and water. Alcohol relapse was assessed in alcohol-dependent rats by examining alcohol consumption following an extended abstinence period. Specifically, in alcohol-dependent rats, when alcohol is reintroduced following an extended abstinence period, rats show marked increases in consumption as compared with levels of consumption prior to abstinence.
(§2) 1) The combination of topiramate and ondansetron reduces ethanol consumption in rats: Total consumption was examined under a 24-hour-access two-bottle choice procedure (10% ethanol vs. water). To induce drinking, both Wistar and P rats were trained onto ethanol using a standard sucrose fading procedure. […] At baseline, the average preference was 0.6±0.2, and the average values observed on test sessions with topiramate alone, ondansetron alone, the combination of topiramate and ondansetron, and vehicle were 0.51±0.2 (−9±4% baseline change), 0.58±0.0 (1±2%), 0.51±0.03 (−11±4%), and 0.59±0.03 (1%±0), respectively. […] At baseline, the average preference ratio was 0.30±0.03 and the average values observed on test sessions with topiramate alone, ondansetron alone, the combination of topiramate and ondansetron, and vehicle were 0.25±0.03 (−6±7% baseline change), 0.26±0.04 (2±2%), 0.31±0.02 (1±3%; P<0.05), and 0.3±0.03 (6%±4), respectively.

early-onset alcoholics [2] = settings: cited from earlier work
early-onset alcoholics [3] = settings: ondansetron in early-onset alcoholics
[4] = test system: alcohol-preferring (P) rats; assay: Alcohol deprivation effect (ADE, relapse model), P rats; type: in vivo, rat; settings: for alcohol deprivation effect (ADE), consumption 24 hours after ethanol reinstated: Example 4, chronic daily treatment from day 8 of 15-day withdrawal, topiramate 10 mg/kg, ondansetron 0.001 mg/kg, FIG. 5A
Experimental: as §1

Wistar rats = assay: Ethanol consumption, 24-hour-access two-bottle choice, Wistar rats; type: in vivo, rat; settings: for alcohol consumption, change from baseline: Example 3, ondansetron 0.001 or 0.01 mg/kg with topiramate 10 mg/kg IP, 4 to 5 rats, FIG. 3; for alcohol consumption, change from baseline / preference ratio for ethanol over water, average on test sessions / preference for ethanol over water, baseline change: Wistar rats; for ethanol consumption: Example 4, Wistar rats n=5, preliminary, FIG. 4B; for preference ratio for ethanol over water, average on test sessions: baseline average 0.30±0.03; for preference for ethanol over water, baseline change: test sessions
Experimental: Combined effect of topiramate (5 and 10 mg/kg, IP) and ondansetron (0.001 and 0.01 mg/kg, IP) on alcohol consumption in Wistar rats. […] The experiments utilized four to five rats per condition. Data are expressed as change from baseline levels of alcohol consumption.
as §1, §2

[5] = test system: alcohol-dependent subjects; assay: Topiramate alone in alcohol dependence (comparison data from a different study); type: in vivo, human
[6] = test system: alcohol-dependent subjects; settings: topiramate alone, cited from earlier work

Cc1nccn1CC1CCc2c(c3ccccc3n2C)C1=O (stereo not drawn) [Ondansetron, 9-methyl-3-[(2-methyl-1H-imidazol-1-yl)methyl]-1,2,3,9-tetrahydrocarbazol-4-one]
decrease from baseline in alcohol consumption [1]: 1%±7% | ethanol consumption vs baseline [1]: did not impact ethanol consumption on its own | preference for ethanol over water, average on test sessions [1]: 0.58±0.0 | preference for ethanol over water, baseline change [1]: 1±2% | report of weight loss (early-onset alcoholics [2]; individuals taking ondansetron alone): no appreciable report of weight loss | paresthesia (early-onset alcoholics [2]; ondansetron administered alone): not associated with paresthesia | mean reduction in drinks per day (early-onset alcoholics [2]; ondansetron alone in early-onset alcoholics): −3.28 drinks per day | Cohen's effect size: drinks per day (early-onset alcoholics [3]): −0.55 | Cohen's effect size: drinks per drinking day (early-onset alcoholics [3]): −0.48 | Cohen's effect size: percentage of days abstinent (early-onset alcoholics [3]): +0.27 | alcohol deprivation effect (ADE), consumption 24 hours after ethanol reinstated [4]: blocked the ADE | alcohol consumption, change from baseline (Wistar rats): lack of modulation | ethanol consumption (Wistar rats): no affect was observed on consumption | preference ratio for ethanol over water, average on test sessions (Wistar rats): 0.26±0.04 | preference for ethanol over water, baseline change (Wistar rats): 2±2%

CC1(C)O[C@@H]2[C@@H](CO[C@@]3(COS(N)(=O)=O)OC(C)(C)O[C@@H]23)O1 [Topiramate, 2,3:4,5-Bis-O-(1-methylethylidene)-beta-D-fructopyranose sulfamate]
Cohen's effect size: drinks per day [5]: −0.80 | Cohen's effect size: drinks per drinking day [5]: −0.63 | Cohen's effect size: percentage of days abstinent [5]: +0.73 | decrease from baseline in alcohol consumption [1]: 13±5% | ethanol consumption vs baseline [1]: significant decrease from baseline ethanol consumption | preference for ethanol over water, average on test sessions [1]: 0.51±0.2 | preference for ethanol over water, baseline change [1]: −9±4% | alcohol consumption following a two-week abstinence period (alcohol deprivation effect) ([4]; Example 2, topiramate 10 mg/kg IP, ondansetron 0.001 mg/kg IP, 2 to 3 rats, FIG. 2): attenuated the alcohol deprivation effect | alcohol deprivation effect (ADE), consumption 24 hours after ethanol reinstated [4]: blocked the ADE | adverse event rate: dizziness ([6]; different study): 28% | adverse event rate: paresthesia ([6]; different study): 54% | adverse event rate: slowing in psychomotor performance ([6]; different study): 27% | individuals reporting weight loss [6]: 19.7% | frequency of paresthesia ([6]; share of individuals): over 50% | alcohol consumption, change from baseline (Wistar rats): lack of modulation | ethanol consumption (Wistar rats): no affect was observed on consumption | preference ratio for ethanol over water, average on test sessions (Wistar rats): 0.25±0.03 | preference for ethanol over water, baseline change (Wistar rats): −6±7%
